Several values for one entry are separate records, joined by “and”; a condition that tells them apart may be missing. Identical values can stand only once. Like-named read-outs stand apart in the source and are kept apart here.
Legend:
Assay in all cases: Fluorescence polarization assay, FAM-labeled [AG]10 RNA and recombinant eIF4A
Format in all cases: binding
Settings in all cases: for Kd: [AG]10 10 nM, compound 50 µM, read-out: Kd between eIF4A protein and RNA
[1] = molecular target: Ophiocordyceps sp. BRM1 eIF4A iso4 WT Gly172
Description: (§1) The fluorescence polarization assay was performed as previously described ([Chen et al., 2021]). […] After incubation at room temperature for 30 min, the mixture was transferred to a black 384-well microplate (Corning), and the fluorescence polarization was measured by an Infinite F-200 PRO (Tecan). Under ADP + Pi conditions, 1 mM ADP (Fujifilm Wako Chemicals) and 1 mM Na2HPO4 were used as substitutes for AMP-PNP. The data were fitted to the Hill equation to calculate Kd values and visualized by Igor Pro v8.01 (WaveMetrics).

[2] = molecular target: Ophiocordyceps sp. BRM1 eIF4A iso4 Gly172His
Description: as §1

[3] = molecular target: Ophiocordyceps sp. BRM1 eIF4A iso4 Gly172Phe
Description: as §1

[4] = [AG]10, ADP + Pi, RocA 50 µM, protein 0.01 μM
[5] = [AG]10, ADP + Pi, RocA 50 µM, protein 0.05 μM
[6] = [AG]10, ADP + Pi, RocA 50 µM, protein 0.075 μM
[7] = [AG]10, ADP + Pi, RocA 50 µM, protein 0.1 μM
[8] = [AG]10, ADP + Pi, RocA 50 µM, protein 0.5 μM
[9] = [AG]10, ADP + Pi, RocA 50 µM, protein 0.75 μM
[10] = [AG]10, ADP + Pi, RocA 50 µM, protein 1 μM
[11] = [AG]10, ADP + Pi, RocA 50 µM, protein 5 μM
[12] = [AG]10, ADP + Pi, RocA 50 µM, protein 7.5 μM
[13] = [AG]10, ADP + Pi, RocA 50 µM, protein 10 μM
[14] = [AG]10, ADP + Pi, RocA 50 µM, protein 25 μM
[15] = [AG]10, ADP + Pi, RocA 50 µM, protein 50 μM
[16] = [AG]10 RNA, AMP-PNP, RocA, protein concentration 0.01 μM
[17] = [AG]10 RNA, AMP-PNP, RocA, protein concentration 0.05 μM
[18] = [AG]10 RNA, AMP-PNP, RocA, protein concentration 0.075 μM
[19] = [AG]10 RNA, AMP-PNP, RocA, protein concentration 0.1 μM
[20] = [AG]10 RNA, AMP-PNP, RocA, protein concentration 0.5 μM
[21] = [AG]10 RNA, AMP-PNP, RocA, protein concentration 0.75 μM
[22] = [AG]10 RNA, AMP-PNP, RocA, protein concentration 1 μM
[23] = [AG]10 RNA, AMP-PNP, RocA, protein concentration 5 μM
[24] = [AG]10 RNA, AMP-PNP, RocA, protein concentration 7.5 μM
[25] = [AG]10 RNA, AMP-PNP, RocA, protein concentration 10 μM
[26] = [AG]10 RNA, AMP-PNP, RocA, protein concentration 25 μM
[27] = [AG]10 RNA, AMP-PNP, RocA, protein concentration 50 μM

COc1ccc([C@@]23Oc4cc(OC)cc(OC)c4[C@]2(O)[C@H](O)[C@H](C(=O)N(C)C)[C@H]3c2ccccc2)cc1 [RocA, rocaglamide A]
Kd ([1]; ADP + Pi (1 mM each)): ~17000 nM and 17000 nM
Kd ([1]; AMP-PNP 1 mM): 230 ± 50 nM
fluorescence polarization, Mean [1, 4]: -0.01093
fluorescence polarization, replicates [1, 4]: 0.0929
fluorescence polarization, Mean [1, 5]: -0.1393
fluorescence polarization, replicates [1, 5]: -0.2186
fluorescence polarization, Mean [1, 6]: -0.09563
fluorescence polarization, replicates [1, 6]: -0.03825 and -0.2268
fluorescence polarization, Mean [1, 7]: -0.08743
fluorescence polarization, replicates [1, 7]: -0.09563
fluorescence polarization, Mean [1, 8]: -0.2951
fluorescence polarization, replicates [1, 8]: -0.2432 and -0.2923 and -0.3497
fluorescence polarization, Mean [1, 9]: -0.347
fluorescence polarization, replicates [1, 9]: -0.3169 and -0.3661 and -0.3579
fluorescence polarization, Mean [1, 10]: -0.2568
fluorescence polarization, replicates [1, 10]: -0.1858 and -0.2104 and -0.3743
fluorescence polarization, Mean [1, 11]: -0.112
fluorescence polarization, replicates [1, 11]: -0.1448 and -0.1612
fluorescence polarization, Mean [1, 12]: -0.1202
fluorescence polarization, replicates [1, 12]: -0.08743
fluorescence polarization, Mean [1, 13]: 0.002732
fluorescence polarization, replicates [1, 13]: -0.005465
fluorescence polarization, Mean [1, 14]: 0.2951
fluorescence polarization, replicates [1, 14]: 0.265
fluorescence polarization, Mean [1, 15]: 0.4044
fluorescence polarization, replicates [1, 15]: 0.4208 and 0.429
Fluorescence polarization, Replicate 1-3 [1, 16]: -0.2186 and -0.2022 and -0.2268
fluorescence polarization, Mean [1, 16]: -0.2158
Fluorescence polarization, Replicate 1-3 [1, 17]: 0.2732 and -0.005465 and -0.2268
fluorescence polarization, Mean [1, 17]: 0.01366
Fluorescence polarization, Replicate 1-3 [1, 18]: -0.112 and -0.04645 and -0.2104
fluorescence polarization, Mean [1, 18]: -0.123
Fluorescence polarization, Replicate 1-3 [1, 19]: 0.3224 and -0.194 and -0.1612
fluorescence polarization, Mean [1, 19]: -0.01093
Fluorescence polarization, Replicate 1-3 [1, 20]: 0.2896
fluorescence polarization, Mean [1, 20]: 0.2896
Fluorescence polarization, Replicate 1-3 [1, 21]: 0.4699 and 0.2732 and 0.1585
fluorescence polarization, Mean [1, 21]: 0.3005
Fluorescence polarization, Replicate 1-3 [1, 22]: 0.4617 and 0.347 and 0.3306
fluorescence polarization, Mean [1, 22]: 0.3798
Fluorescence polarization, Replicate 1-3 [1, 23]: 0.5683 and 0.3962 and 0.429
fluorescence polarization, Mean [1, 23]: 0.4645
Fluorescence polarization, Replicate 1-3 [1, 24]: 0.5765 and 0.4372 and 0.4044
fluorescence polarization, Mean [1, 24]: 0.4727
Fluorescence polarization, Replicate 1-3 [1, 25]: 0.4372 and 0.3962 and 0.3224
fluorescence polarization, Mean [1, 25]: 0.3852
Fluorescence polarization, Replicate 1-3 [1, 26]: 0.6585 and 0.4372 and 0.4617
fluorescence polarization, Mean [1, 26]: 0.5191
Fluorescence polarization, Replicate 1-3 [1, 27]: 0.5929 and 0.4863 and 0.4699
fluorescence polarization, Mean [1, 27]: 0.5164
Kd ([2]; ADP + Pi (1 mM each)): 3900 ± 980 nM
Kd ([2]; AMP-PNP 1 mM): 51 ± 9.1 nM
fluorescence polarization, Mean [2, 4]: -0.1448
fluorescence polarization, replicates [2, 4]: -0.04098 and -0.2377
fluorescence polarization, Mean [2, 5]: -0.08743
fluorescence polarization, replicates [2, 5]: -0.08197 and -0.02459
fluorescence polarization, Mean [2, 6]: -0.06284
fluorescence polarization, replicates [2, 6]: -0.05738 and -0.123 and -0.008197
fluorescence polarization, Mean [2, 7]: -0.07923
fluorescence polarization, replicates [2, 7]: -0.05738 and -0.08197 and -0.09836
fluorescence polarization, Mean [2, 8]: 0.265
fluorescence polarization, replicates [2, 8]: 0.2459 and 0.2541 and 0.2951
fluorescence polarization, Mean [2, 9]: 0.2814
fluorescence polarization, replicates [2, 9]: 0.3197 and 0.3443 and 0.1803
fluorescence polarization, Mean [2, 10]: 0.4809
fluorescence polarization, replicates [2, 10]: 0.4754 and 0.5 and 0.4672
fluorescence polarization, replicates [2, 11]: 0.459 and 0.6639
fluorescence polarization, Mean [2, 12]: 0.7978
fluorescence polarization, replicates [2, 13]: 0.5246 and 0.5902 and 0.582
fluorescence polarization, Mean [2, 14]: 0.8743
fluorescence polarization, replicates [2, 14]: 0.8197 and 0.877 and 0.9262
fluorescence polarization, Mean [2, 15]: 1.003
fluorescence polarization, replicates [2, 15]: 1.033 and 1.0082
Fluorescence polarization, Replicate 1-3 [2, 16]: 0.06831 and 0.1421 and 0.06011
fluorescence polarization, Mean [2, 16]: 0.09016
Fluorescence polarization, Replicate 1-3 [2, 17]: 0.5929 and 0.5109 and 0.4781
fluorescence polarization, Mean [2, 17]: 0.5273
Fluorescence polarization, Replicate 1-3 [2, 18]: 0.5519 and 0.5601 (2×)
fluorescence polarization, Mean [2, 18]: 0.5574
Fluorescence polarization, Replicate 1-3 [2, 19]: 0.6093 and 0.6749 and 0.5519
fluorescence polarization, Mean [2, 19]: 0.612
Fluorescence polarization, Replicate 1-3 [2, 20]: 0.8716 (2×) and 0.806
fluorescence polarization, Mean [2, 20]: 0.8497
Fluorescence polarization, Replicate 1-3 [2, 21]: 0.8798 and 0.8634 and 0.9126
fluorescence polarization, Mean [2, 21]: 0.8852
Fluorescence polarization, Replicate 1-3 [2, 22]: 0.9536 and 0.9372 and 0.8716
fluorescence polarization, Mean [2, 22]: 0.9208
Fluorescence polarization, Replicate 1-3 [2, 23]: 0.9372 (2×) and 0.9044
fluorescence polarization, Mean [2, 23]: 0.9262
Fluorescence polarization, Replicate 1-3 [2, 24]: 0.8716 and 0.9126 and 0.9044
fluorescence polarization, Mean [2, 24]: 0.8962
Fluorescence polarization, Replicate 1-3 [2, 25]: 0.9536 and 0.929 and 0.8552
fluorescence polarization, Mean [2, 25]: 0.9126
Fluorescence polarization, Replicate 1-3 [2, 26]: 0.9372 and 1.027 and 0.9536
fluorescence polarization, Mean [2, 26]: 0.9727
Fluorescence polarization, Replicate 1-3 [2, 27]: 1.044 (2×) and 1.027
fluorescence polarization, Mean [2, 27]: 1.038
Kd ([3]; ADP + Pi (1 mM each)): 270 ± 50 nM
Kd ([3]; AMP-PNP 1 mM): 53 ± 23 nM
fluorescence polarization, Mean [3, 4]: -0.0929
fluorescence polarization, replicates [3, 4]: -0.1366
fluorescence polarization, Mean [3, 5]: -0.112
fluorescence polarization, replicates [3, 5]: -0.1366
fluorescence polarization, Mean [3, 6]: -0.05465
fluorescence polarization, replicates [3, 6]: -0.005465
fluorescence polarization, Mean [3, 7]: 0.05191
fluorescence polarization, replicates [3, 7]: 0.0929 and 0.002732
fluorescence polarization, Mean [3, 8]: 0.3142
fluorescence polarization, replicates [3, 8]: 0.3142 and 0.2486
fluorescence polarization, Mean [3, 9]: 0.3661
fluorescence polarization, replicates [3, 9]: 0.429 and 0.306
fluorescence polarization, Mean [3, 10]: 0.4044
fluorescence polarization, replicates [3, 10]: 0.3552 and 0.429 (2×)
fluorescence polarization, Mean [3, 11]: 0.4399
fluorescence polarization, replicates [3, 11]: 0.4781 and 0.4208 (2×)
fluorescence polarization, Mean [3, 12]: 0.5328
fluorescence polarization, replicates [3, 12]: 0.5519 and 0.5027
fluorescence polarization, Mean [3, 13]: 0.5055
fluorescence polarization, replicates [3, 13]: 0.4372 and 0.5109 and 0.5683
fluorescence polarization, Mean [3, 14]: 0.5301
fluorescence polarization, replicates [3, 14]: 0.4863
fluorescence polarization, Mean [3, 15]: 0.5273
fluorescence polarization, replicates [3, 15]: 0.5765 and 0.5519 and 0.4536
Fluorescence polarization, Replicate 1-3 [3, 16]: 0.3525 and 0.2213 and 0.04098
fluorescence polarization, Mean [3, 16]: 0.2049
Fluorescence polarization, Replicate 1-3 [3, 17]: 0.3852 and 0.2951 and 0.2787
fluorescence polarization, Mean [3, 17]: 0.3197
Fluorescence polarization, Replicate 1-3 [3, 18]: 0.3197 and 0.3607 and 0.3361
fluorescence polarization, Mean [3, 18]: 0.3388
Fluorescence polarization, Replicate 1-3 [3, 20]: 0.8689 and 0.8197
Fluorescence polarization, Replicate 1-3 [3, 21]: 0.8115 and 0.7295
fluorescence polarization, Mean [3, 21]: 0.7514
Fluorescence polarization, Replicate 1-3 [3, 22]: 0.8279 and 0.8934
Fluorescence polarization, Replicate 1-3 [3, 23]: 0.8197 and 0.877
fluorescence polarization, Mean [3, 23]: 0.8661
Fluorescence polarization, Replicate 1-3 [3, 24]: 0.9262 and 0.8361 and 0.8525
fluorescence polarization, Mean [3, 24]: 0.8716
Fluorescence polarization, Replicate 1-3 [3, 25]: 0.8689 and 0.8525 and 0.8033
fluorescence polarization, Mean [3, 25]: 0.8415
Fluorescence polarization, Replicate 1-3 [3, 26]: 0.8607 and 0.9262 and 0.877
fluorescence polarization, Mean [3, 26]: 0.888
Fluorescence polarization, Replicate 1-3 [3, 27]: 0.9344 and 0.9672 and 0.9098
fluorescence polarization, Mean [3, 27]: 0.9372
